We go through one compound from article PMC5532403, “Potential for a novel manganese porphyrin compound as adjuvant canine lymphoma therapy” (Cancer Chemotherapy and Pharmacology, 2017).

For the data set, the system named is normal dogs. The experiment in a line: Maximally tolerated dose / single-dose safety monitoring (pulse, blood pressure, drug reactions). It counts as in vivo, dog. The settings on record: for average heart rate at peak: 1 h after injection. The protocol:
Safety was assessed by evaluation of standard physical and laboratory parameters of systemic health. A full physical examination was performed prior to initiation of the study and on each treatment and sampling day. Indirect blood pressure monitoring was performed using Cardell Vet Monitor 9401 Blood Pressure Monitor. Pulse was quantified as heart beats per minute according to manual counts, as well as quantified with a blood pressure monitor. There was good correlation between pulse rates counted with manual methods compared to the blood pressure monitor (Figure S1). Standard laboratory assessments (complete blood cell count, biochemistry panel, urinalysis) were repeated throughout the phases of the study to assess systemic health.
Thus, 1 mg/kg was selected as a safe initial dose for the MTD and single-dose PK studies in this work.

Molecules are shown by their SMILES. “Also recorded” adds a separate entry of the source.

For `CCCCOCC[n+]1ccccc1-c1c2nc(c(-c3cccc[n+]3CCOCCCC)c3ccc([n-]3)c(-c3cccc[n+]3CCOCCCC)c3nc(c(-c4cccc[n+]4CCOCCCC)c4ccc1[n-]4)C=C3)C=C2.[Mn+3]` [MnBuOE, Mn(III) meso-tetrakis (N-n-butoxyetylpyridium-2-yl) porphyrin], where the note is “0.25 mg/kg sc”, the “heart rate following injection” value is 104–116 beats per minute, the “pulse 24 h post-injection” value is “did not alter pulse rate 24 h post-injection; also recorded: normalized by 24 h” and the tachycardia grade result is listed as “did not induce a clinical tachycardia; also recorded: mild increase in heart rate”. The “anaphylactic or local drug reactions” value (0.25 mg/kg sc with premedication) was “No anaphylactic or local drug reactions were observed”. Moreover, for the setting “0.5 mg/kg sc”, the “local drug reaction at the injection site” value is reported as “No local drug reaction at the injection site was noted”, the “pulse 24 h post-injection” value is “remained slightly increased” and the tachycardia grade result is “mild to moderate tachycardia”. Also, the “average heart rate at peak” value (0.5 mg/kg sc, one dog) is listed as 144 beats per minute. The anaphylactic reaction result (0.5 mg/kg sc, one dog, pre-administration of diphenhydramine, famotidine, prednisone) is on record as “did not occur”. For the same compound, where the note is “1 mg/kg sc”, the “blood pressure change with tachycardia” value is reported as “not associated with changes in blood pressure”, the “local drug reactions in the subcutaneous site of injection” value is reported as “occurred with two of the dogs”, the persistence of tachycardia result is given as “at least 6 h” and the “pulse 24 h post-injection” value is “remained increased compared to resting heart rates”. Under “1 mg/kg sc”, the tachycardia grade result was “severe sinus tachycardia” and the “average heart rate at peak” value was 210 beats per minute. Moreover, where the note is “1 mg/kg sc, following injection”, the “time to development of acute anaphylactic drug reaction” value lay within 15 to 20 min. Moreover, for the setting “1 mg/kg sc, no premedication”, the acute drug reaction result was “acute anaphylactic drug reaction; also recorded: induced an anaphylactic drug reaction”. In addition, the “maximum tolerated dose (MTD)” value (sc, dogs, with premedication (anti-histamines, steroids)) is on record as 0.25 mg/kg. The “indirect blood pressure after single dose” value (single sc dose, Supplemental Fig. 2) is “subclinical fluctuations in recorded indirect blood pressures”.
